Results as given in patent US20130190407A1, “CALCIUM RECEPTOR-ACTIVE MOLECULES” (NPS Pharmaceuticals, Inc., priority 1991, published 2013).
Where two headings read alike, the source gives them in different places.

Experiments:
[1] = molecular target: T1, bovine parathyroid cell calcium receptor (Bos taurus, UniProt P35384); assay: Cl- current in Xenopus oocytes injected with BoPCaR 1; assay type: cell-based
T1 construct: isolation of a single clone (BoPCaR 1) with a cDNA insert of 5.3 kb; expressed in transfected cells
T1 sequence (P35384 20-1085): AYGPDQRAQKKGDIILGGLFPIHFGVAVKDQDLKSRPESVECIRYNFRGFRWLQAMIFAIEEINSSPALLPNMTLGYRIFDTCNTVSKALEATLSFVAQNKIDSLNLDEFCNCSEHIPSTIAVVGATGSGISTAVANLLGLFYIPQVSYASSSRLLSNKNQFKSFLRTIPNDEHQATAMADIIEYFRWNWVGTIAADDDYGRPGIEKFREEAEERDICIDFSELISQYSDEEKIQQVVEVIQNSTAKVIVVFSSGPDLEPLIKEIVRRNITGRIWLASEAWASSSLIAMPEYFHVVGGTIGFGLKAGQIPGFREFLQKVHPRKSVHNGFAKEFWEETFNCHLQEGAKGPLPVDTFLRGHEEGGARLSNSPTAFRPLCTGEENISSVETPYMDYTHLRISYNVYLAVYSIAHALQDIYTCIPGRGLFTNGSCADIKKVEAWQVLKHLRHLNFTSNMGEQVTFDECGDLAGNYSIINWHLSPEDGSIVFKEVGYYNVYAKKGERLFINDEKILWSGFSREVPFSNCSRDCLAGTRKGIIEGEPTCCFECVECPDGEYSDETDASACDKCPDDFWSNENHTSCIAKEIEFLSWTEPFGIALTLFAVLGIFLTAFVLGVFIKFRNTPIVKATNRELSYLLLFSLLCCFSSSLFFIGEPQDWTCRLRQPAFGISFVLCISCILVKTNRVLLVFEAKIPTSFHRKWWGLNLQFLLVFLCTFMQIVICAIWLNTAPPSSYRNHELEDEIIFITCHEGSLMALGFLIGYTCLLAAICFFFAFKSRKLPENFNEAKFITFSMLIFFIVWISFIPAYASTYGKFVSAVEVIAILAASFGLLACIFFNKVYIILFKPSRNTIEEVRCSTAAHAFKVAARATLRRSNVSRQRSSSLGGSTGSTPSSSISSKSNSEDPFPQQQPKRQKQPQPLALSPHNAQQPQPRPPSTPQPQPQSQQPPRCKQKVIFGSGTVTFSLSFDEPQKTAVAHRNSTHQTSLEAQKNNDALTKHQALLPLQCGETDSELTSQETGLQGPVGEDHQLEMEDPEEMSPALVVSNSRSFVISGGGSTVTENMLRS
Protocol: Several pharmacological and biochemical criteria were used to identify this clone as encoding a bona fide bovine parathyroid Ca^2+ receptor. […] These responses increased markedly over a period of one to four days after injection of the eggs with cRNA prepared from the BoPCaR 1 cDNA. Furthermore, the ranges of the concentrations of the two cations eliciting this response were very similar to those shown previously to act on bovine parathyroid cells in vitro.
Xenopus oocytes were injected with BoPCaR 1, the 5.3 Kb cDNA encoding a bovine parathyroid cell calcium receptor as described in Example 25. After two to three days, Cl^− currents were examined in the oocytes using a two-electrode voltage clamp.
Xenopus oocytes were injected with BoPCaR 1 as described in Example 25. After two to three days, Cl^− currents were examined in the oocytes using two electrode voltage clamp.

[2] = tested on: parathyroidectomized rats; assay: Serum ionized Ca2+ in parathyroidectomized animals; assay type: in vivo, rat
Text: To determine the primary target tissue upon which NPS R-467 acts to cause a hypocalcemic response, the parathyroid glands in rats were surgically removed. Animals receiving a total parathyroidectomy become hypocalcemic and are largely dependent upon dietary calcium to maintain serum Ca^2+ homeostasis.

[3] = tested on: Sprague-Dawley rats; assay: Serum/plasma Ca2+, PTH and calcitonin in rats in vivo; parameters: species or system rat; conditions: for ED50: Rattus norvegicus, po, normal adult rats
Protocol: Compounds shown to activate the bovine parathyroid cell calcium receptor in vitro were tested for hypocalcemic activity in vivo. Male Sprague-Dawley rats (200 g) were maintained on a low calcium diet for one week prior to receiving test substance or vehicle as control. Blood was collected from the tail vein three hours after the intra-peritoneal administration of NPS 467. […] Serum total calcium, albumin and phosphate were measured by techniques well known in the art.
Rats (male, Sprague-Dawley, 250-300 g) were fed standard rat chow and fasted overnight prior to the experiment. NPS R-467 was suspended in corn oil, and administered as a single oral dose through a gavage needle. Three hours later a sample of blood was taken from the tail vein and assessed for ionized Ca^2+ levels.

[4] = molecular target: T2, parathyroid cell calcium receptor (Bos taurus, UniProt P35384); assay: Mobilization of intracellular Ca2+ ([Ca2+]i, fura-2) in bovine parathyroid cells; assay type: cell-based; parameters: Parathyroid glands were obtained from freshly slaughtered calves (12-15 weeks old); endogenous in cells; host or cells: dissociated primary bovine (calf) parathyroid cells; conditions: EC50 for mobilization of intracellular Ca2+; bovine parathyroid cells
T2 sequence (P35384 20-1085): T1 sequence (P35384 20-1085)
Protocol: This section describes procedures used to obtain and treat parathyroid cells from calves and humans. […] Human parathyroid glands, were obtained from patients undergoing surgical removal of parathyroid tissue for primary or uremic hyperparathyroidism (uremic HPT), and were treated similarly to bovine tissue.
Glands were trimmed of excess fat and connective tissue and then minced with fine scissors into cubes approximately 2-3 mm on a side. Dissociated parathyroid cells were prepared by collagenase digestion and then purified by centrifugation in Percoll buffer. The resultant parathyroid cell preparation was essentially devoid of red blood cells, adipocytes, and capillary tissue as assessed by phase contrast microscopy and Sudan black B staining. Dissociated and purified parathyroid cells were present as small clusters containing 5 to 20 cells.
The cells were then pelleted, resuspended in the same buffer, but lacking the ester, and incubated a further 15 minutes at 37° C. The cells were subsequently washed twice with PCB containing 0.5 mM CaCl2 and 0.5% BSA and maintained at room temperature (about 20° C.) Immediately before use, the cells were diluted five-fold with prewarmed 0.5 mM CaCl2-PCB to obtain a final BSA concentration of 0.1%. The concentration of cells in the cuvette used for fluorescence recording was 1−2×10^6/ml.
The fluorescence of indicator-loaded cells was measured at 37° C. in a spectrofluorimeter (Biomedical Instrumentation Group, University of Pennsylvania, Philadelphia, Pa.) equipped with a thermostated cuvette holder and magnetic stirrer using excitation and emission wavelengths of 340 and 510 nm, respectively. […] Leakage of dye is dependent on temperature and most occurs within the first 2 minutes after warming the cells in the cuvette. Dye leakage increases only very slowly thereafter. To correct the calibration for dye leakage, cells were placed in the cuvette and stirred at 37° C. for 2-3 minutes. The cell suspension was then removed, the cells pelleted, and the supernatant returned to a clean cuvette. […] This estimate was subtracted from the apparent Fmin.

| SMILES | concentrations producing changes in Cl- current [1] [µM] | change in serum ionized Ca2+ ([2]; 10 mg/kg i.p., over 6 hours) | potency in lowering serum Ca2+ in vivo ([3]; 5 mg/kg body weight) | serum ionized Ca2+ ([3]; single oral dose in corn oil, three hours) | EC50 [4] [µM] | hypocalcemic response ([2]; oral administration) | EC50 ([1]; 0.3 or 1 mM extracellular Ca2+, read-out: EC50 for increases in Cl- current) [µM] | ED50 ([3]; read-out: ED50 for depression of plasma Ca2+) [mg/kg] | ED50 ([3]; read-out: ED50 for depression of plasma PTH) [mg/kg] | ED50 ([3]; read-out: ED50 for stimulation of calcitonin) [mg/kg] |
| --- | --- | --- | --- | --- | --- | --- | --- | --- | --- | --- |
| NC[C@@H]1O[C@H](O[C@H]2[C@@H](O)[C@H](O[C@@H]3[C@@H](O)[C@H](N)C[C@H](N)[C@H]3O[C@H]3O[C@H](CN)[C@@H](O)[C@H](O)[C@H]3N)O[C@@H]2CO)[C@H](N)[C@@H](O)[C@@H]1O [Neomycin B, neomycin B] | 20 to 100 |  |  |  |  |  |  |  |  |  |
| COc1cccc([C@@H](C)NCCCc2ccccc2)c1 (single isomer, unassigned) [NPS R-467] |  | did not cause any change in serum ionized Ca^2+ levels | more potent than the S-isomer in lowering serum Ca^2+ in vivo | dose-dependent reduction in serum levels of ionized Ca^2+ | < 5 |  |  |  |  |  |
| COc1cccc([C@@H](C)NCCCc2ccccc2Cl)c1 [NPS R-568, (R)-(+)-N-[3-(2-chlorophenyl)propyl]-α-methyl-3-methoxybenzylamine] |  |  |  |  | < 5 | fails to elicit a hypocalcemic response | ~3 | 8 | 1 | 40 |
